{"source": "paper PMC6008299", "about": "“Impact of race on dose selection of molecular-targeted agents in early-phase oncology trials” (British Journal of Cancer, 2018)", "key": {"[1]": {"assay": "Pharmacokinetics in Japanese cohort (J102)", "type": "in vivo, human", "protocol": "(§1) In both studies, the PK profile of DS-7423 was characterised during cycle 1 on days 1 and 8. For PD analysis, glucose, C-peptide, and Akt phosphorylation were measured in platelet-rich plasma collected at predose, 1, 2, 4, 6, and 24 h after dosing on days 1 and 15. Tumour assessment was performed every two cycles using Response Evaluation Criteria in Solid Tumours (RECIST) version 1.1 in both studies. 18F-Fluoro-2-deoxy-D-glucose positron emission tomography ([18F]-FDG) was performed as an exploratory endpoint at baseline and on day 4.[10]\n(§2) The data cut-off for the primary analysis occurred after all patients had either discontinued the study or completed 6 months of study drug treatment. Descriptive statistics were provided for selected demographic, safety, PK, and PD data by dose and time as appropriate. Descriptive statistics on continuous data included means, medians, standard deviations, and ranges, while categorical data were summarised using frequency counts and percentages. No inferential analysis to compare dose levels was performed due to limited sample sizes. The WinNonlin software was used for PK analysis."}, "[2]": {"assay": "Pharmacokinetics, both studies", "type": "in vivo, human", "source_text": "as §2, with “In both studies, the PK profile of DS-7423 was characterised during cycle 1 on days 1 and 8. […] The data” for “The data”"}, "[3]": {"tested_on": "CYP2C8, CYP3A4, and CYP3A5", "parameters": "method as in printed", "conditions": "stated in discussion, ref not given; cited from earlier work"}, "[4]": {"tested_on": "Akt phosphorylation", "assay": "Pharmacodynamics: Akt phosphorylation in platelet-rich plasma", "type": "in vivo, human", "conditions": "pre-treatment vs post-treatment, 32 patients", "protocol": "as §1"}, "[5]": {"tested_on": "advanced solid tumours", "assay": "Tumour assessment RECIST 1.1, both studies", "type": "in vivo, human", "conditions": "either study", "protocol": "as §1"}, "[6]": {"tested_on": "glucose", "assay": "Pharmacodynamics: glucose after dosing", "type": "in vivo, human", "conditions": "decreased toward baseline at 24 h", "protocol": "as §1"}, "[7]": {"tested_on": "tumour [18F]-FDG uptake", "assay": "[18F]-FDG-PET metabolic response, US (Caucasian) patients", "type": "in vivo, human", "conditions": "day 4", "protocol": "as §1"}, "[8]": {"tested_on": "tumour [18F]-FDG uptake", "assay": "[18F]-FDG-PET metabolic response, Japanese (Asian) patients", "type": "in vivo, human", "conditions": "day 4", "protocol": "as §1"}, "[9]": {"conditions": "dose level 4, Japanese cohort (n = 3)"}, "[10]": {"conditions": "dose level 8, Japanese cohort (n = 3)"}, "[11]": {"conditions": "dose level 16, Japanese cohort (n = 2)"}, "[12]": {"conditions": "dose level 160, Japanese cohort (n = 3)"}, "[13]": {"conditions": "dose level 240, Japanese cohort (n = 5)"}}}
{"smiles": "CC(=O)N1CCN(c2nc3c(N4CCOCC4)nc(-c4cnc(N)nc4)nc3n2CC(F)(F)F)C[C@H]1C", "note": "[DS-7423]", "values": [{"measurement": "Mean AUCtau", "setting": "[1]; [9]", "result": 31.1, "unit": "ng·h/mL"}, {"measurement": "Mean Cmax", "setting": "[1]; [9]", "result": 3, "unit": "ng/mL"}, {"measurement": "T1/2", "setting": "[1]; [9]", "result": "6 to 7", "unit": "h"}, {"measurement": "Tmax", "setting": "[1]; [9]", "result": "2 to 4", "unit": "h"}, {"measurement": "Mean AUCtau", "setting": "[1]; [10]", "result": 84.2, "unit": "ng·h/mL"}, {"measurement": "Mean Cmax", "setting": "[1]; [10]", "result": 10, "unit": "ng/mL"}, {"measurement": "T1/2", "setting": "[1]; [10]", "result": "6 to 7", "unit": "h"}, {"measurement": "Tmax", "setting": "[1]; [10]", "result": "2 to 4", "unit": "h"}, {"measurement": "Mean AUCtau", "setting": "[1]; [11]", "result": 178, "unit": "ng·h/mL"}, {"measurement": "Mean Cmax", "setting": "[1]; [11]", "result": 18, "unit": "ng/mL"}, {"measurement": "T1/2", "setting": "[1]; [11]", "result": "6 to 7", "unit": "h"}, {"measurement": "Tmax", "setting": "[1]; [11]", "result": "2 to 4", "unit": "h"}, {"measurement": "Mean AUCtau", "setting": "[1]; [12]", "result": 1223.3, "unit": "ng·h/mL"}, {"measurement": "Mean Cmax", "setting": "[1]; [12]", "result": 61, "unit": "ng/mL"}, {"measurement": "T1/2", "setting": "[1]; [12]", "result": "6 to 7", "unit": "h"}, {"measurement": "Tmax", "setting": "[1]; [12]", "result": "2 to 4", "unit": "h"}, {"measurement": "Mean AUCtau", "setting": "[1]; [13]", "result": 1184.8, "unit": "ng·h/mL"}, {"measurement": "Mean Cmax", "setting": "[1]; [13]", "result": 83.6, "unit": "ng/mL"}, {"measurement": "T1/2", "setting": "[1]; [13]", "result": 12, "unit": "h"}, {"measurement": "Tmax", "setting": "[1]; [13]", "result": "2 to 4", "unit": "h"}, {"measurement": "median half-life", "setting": "[2]; 240-mg dose (MTD)", "result": 12, "unit": "h"}, {"measurement": "Difference in AUC and Cmax between the two populations", "setting": "[2]; MTD of 240 mg, Caucasian vs Asian", "result": "no significant differences"}, {"measurement": "median time to peak concentration (Tmax)", "setting": "[2]; across dose groups", "result": "2 to 4", "unit": "h"}, {"measurement": "Drug accumulation", "setting": "[2]; predose concentrations days 15 and 21 of cycle 1 and day 1 of cycle 2", "result": "no remarkable drug accumulation"}, {"measurement": "Involvement of CYP2C8, CYP3A4, and CYP3A5 in metabolism", "setting": "[3]", "result": "involved in the metabolism"}, {"measurement": "Akt phosphorylation in platelet-rich plasma", "setting": "[4]", "result": "inhibited compared with that at baseline"}, {"measurement": "Response by RECIST 1.1", "setting": "[5]", "result": "no PR or CR"}, {"measurement": "Hyperglycaemia (on-target effect)", "setting": "[6]", "result": "observed as early as 4 h after dosing"}, {"measurement": "Patients with partial metabolic response ([18F]-FDG-PET)", "setting": "[7]", "result": 48.5, "unit": "%"}, {"measurement": "Patients with partial metabolic response ([18F]-FDG-PET)", "setting": "[7]; of 33 patients", "result": 16}, {"measurement": "Patients with partial metabolic response ([18F]-FDG-PET)", "setting": "[8]", "result": 36.4, "unit": "%"}, {"measurement": "Patients with partial metabolic response ([18F]-FDG-PET)", "setting": "[8]; of 11 patients", "result": 4}]}
